Data set [1] has as its system SGC-7901 cells. In words: Mitochondrial membrane potential assay (JC-1). It is filed as cell-based, human. To be noted: SGC-7901, IC50 concentrations, 24 h; control 5.85. As for the experimental part:
SGC-7901 cells were treated with IC50 concentrations of the compounds in 12-well plates for 24 h and were washed three times with cold PBS. Then, the cells were stained with 1 μg/mL JC-1 for 30 min at 37 °C in the dark. After that, the cells were washed twice with ice-cold PBS to remove residual stain and imaged under the ImageXpress Micro XLS system (MD company, San Jose, CA, USA).

The subject of data set [2] is CRT, HSP70 and HMGB1. In words: Immunostaining of CRT, HSP70 and HMGB1 (immunogenic cell death). It is filed as cell-based, human. The settings on record: SGC-7901, IC50 concentrations, 24 h. As for the experimental part: The SGC-7901 cells were cultured in 12-well plates and treated with IC50 concentrations of 3b and 3c for 24 h. The cells were fixed with 75% alcohol, and then washed and incubated with immunostaining blocker for 1 h. The primary antibody CRT Antibody, HSP70 Antibody and HMGB1 antibody were incubated for 12 h and then the cells were washed three times with PBS. Next, the secondary antibody FITC-labeled Goat Anti-Rabbit IgG was incubated in darkness for 1 h. The cells were washed three times with PBS. Finally, the nuclei were stained with Hoechst and photographed under Micro XLS System (MD company, San Jose, CA, USA).

Data set [3] relates to BEL-7402. In words: MTT in vitro cytotoxicity assay, BEL-7402. Type of data set: cell-based. The settings on record: Homo sapiens, 48 h. As for the experimental part: (§1) Roswell Park Memorial Institute Medium (RPMI-1640) was used to culture BEL-7402 and SGC-7901 cell lines; and A549, HeLa and LO2 cells were cultured in Dulbecco’s Modified Eagle’s Medium (DMEM) containing 10% fetal bovine serum (FBS). Cell passage experiments were performed with trypsin every 2 days to maintain exponential growth. All cells were cultured until they reached logarithmic growth phase, unless specifically noted.
(§2) The cytotoxicity test was carried out according to a method described in the literature. The cells were seeded into 96-well micro-assay culture plates and grown overnight in a 5% CO2 incubator at 37 °C. Then, the cells were treated with gradient concentrations of the compounds when the cells grew to 60–70%. At 48 h posttreatment, the medium was removed and MTT solution was added. After 4 h, the absorbance at 490 nm was measured with a microplate reader. The IC50 values were calculated by SPSS (Statistical Product and Service Solutions) software.

Data set [4] can be described thus: Partition coefficient by shake flask method. The settings on record: octanol / phosphate buffer (0.129 M NaCl, pH = 7.4). It is filed as physicochemical. On the procedure: Partition coefficients of compounds in octanol and phosphate buffer (0.129 M NaCl, pH = 7.4) were measured as described by Owellen and coworkers. The concentrations of the compounds in the octanol and phosphate buffer phases were determined three times using a UV/Vis spectrophotometer. The partition coefficients were calculated from the ratio Coct/CPBS, where Coct and CPBS were the concentrations of the compound in the octanol and phosphate buffer, respectively.

The test system of data set [5] is P38 MAPK. In words: Western blot of P38 MAPK expression. To be noted: SGC-7901, IC50 concentrations, 24 h. It is filed as cell-based, human. As for the experimental part:
SGC-7901 cells were seeded in six-well plates for 24 h and incubated with IC50 concentrations of the compounds in the presence of 10% fetal bovine serum (FBS). The cells were then harvested in lysis buffer. After sonication, the samples were centrifuged for 20 min at 13,000× g. The protein concentration of the supernatant was determined by BCA (bicinchoninic acid) assay. Sodium dodecyl sulfate–polyacrylamide gel electrophoresis was carried out with loading equal amounts of proteins per lane. The gels were then transferred to poly (vinylidene difluoride) membranes (Millipore, Billerica, MA, USA) and blocked with 5% nonfat milk in TBST (20 mM Tris-HCl, 150 mM NaCl, 0.05% Tween 20, pH 8.0, Tween: polyoxyethylene monolaurate sorbaitan) buffer for 3 h. The polyvinylidene difluoride membranes were washed four times with TBST (4 × 10 min) and incubated with primary antibody solution at 4 °C overnight. They were then washed four times with TBST for a total of 30 min. The secondary antibodies were then conjugated with horseradish peroxidase (1:5000 dilution) for 70 min at room temperature and washed four times with TBST. The blots were visualized with the Amersham ECL ([…]) and western blotting detection reagents according to the manufacturer’s instructions.

In data set [6] the test system is HeLa. In words: MTT in vitro cytotoxicity assay, HeLa. Type of data set: cell-based. To be noted: Homo sapiens, 48 h. On the procedure: as §1, §2
For data set [7], the system named is SGC-7901 cells. In words: Intracellular ROS levels (DCFH-DA). The settings on record: SGC-7901, IC50 concentrations, 24 h, versus control. It is filed as cell-based, human. On the procedure:
SGC-7901 cells were seeded in 12-well plate at a density of 1.5 × 10^5 cells per well for 24 h. Then, the medium was replaced with medium containing compounds for 24 h. After treatment, the medium was removed and washed three times with PBS, and the cells were stained with 20 μM DCFH-DA for 30 min in the dark. Finally, the cells were imaged under ImageXpress Mico XLS system (MD company, San Jose, CA, USA).

The test system of data set [8] is LO2. In words: MTT in vitro cytotoxicity assay, normal cell line LO2. Type of data set: cell-based. To be noted: Homo sapiens, L02, 48 h. On the procedure:
as §1, §2

Data set [9] in a line: Stability in PBS by UV-Vis spectra. It is filed as physicochemical. From the text:
The stability of 3b and 3c in PBS was studied by UV-Vis spectra.

The subject of data set [10] is SGC-7901 cells. In words: Cell cycle arrest by flow cytometry (PI). The settings on record: SGC-7901, IC50 concentrations, 24 h. It is filed as cell-based, human. As for the experimental part:
The cell cycle arrest was carried out using a method described in the literature. Briefly, SGC-7901 cells were treated with IC50 concentrations of compounds for 24 h. Then, the cells were harvested and fixed overnight in 70% ethanol at 4 °C. Next, the permeabilized cells were stained with PI/RNase buffer and the DNA content was determined on a flow cytometer. The results were analyzed by ModFit LT 4.0 (Verity Software House, Topsham, ME, USA).
Background: Flow cytometry measures light scatter and fluorescence of single cells or particles in a stream.

Data set [11] deals with calf thymus DNA (CT-DNA). In words: EB-competitive binding, luminescence titration. The settings on record: EB-CT-DNA (DNA:EB = 1.25:1), compounds 6.62–50 μM. As for the experimental part: We used ethidium bromide (EB)-competing binding experiments to investigate the binding mode between the compounds and CT-DNA. It is well known that EB combines DNA molecules through a classic intercalative mode. Maintaining the DNA-EB solution concentration (DNA:EB = 1.25:1) and varying the concentrations of compounds (6.62–50 μM), the spectra were recorded after 5 min. The Stern-Volmer constants (Ksv) were calculated using the following Equation (3):F0/F = 1 + Ksv [Q](3) where F0 and F were the fluorescence intensities of the EB-CT DNA solution at 550–700 nm in the absence and presence of the compounds, respectively. [Q] was the concentration of compounds. In plots of F0/F versus [Q], Ksv was given by the ratio of the slope to the intercept.

Data set [12] relates to SGC-7901 cells. In words: Cellular uptake (DAPI, fluorescence microscope). The settings on record: SGC-7901, IC50 concentrations, 24 h. It is filed as cell-based, human. As for the experimental part: Cellular uptake studies were performed according to a method described in the literature. SGC-7901 cells were placed in 24-well microassay culture plates and grown overnight at 37 in a 5% CO2 incubator. The compounds tested were then added to the wells. […] Upon completion of incubation, the wells were washed three times with phosphate buffered saline (PBS). After moving the culture medium, the cells were stained with 2-(4-amidinophenyl)-6-indolecarbamidine dihydrochloride (DAPI) and observed under fluorescence microscope.

Data set [13] relates to SGC-7901 cells. In words: Intracellular MDA assay. Type of data set: cell-based, human. The settings on record: SGC-7901, IC50 concentrations, 24 h. As for the experimental part:
(§3) After incubation with IC50 concentrations of 3b and 3c for 24 h, SGC-7901cells were lysed. The lysate was centrifuged for 15 min to collect the supernatant. The protein concentration was determined using a BCA Protein Assay Kit (Beyotime, Shanghai, China). A lipid peroxidation MDA assay kit (Beyotime, Shanghai, China) was used to detect MDA content, and a GSH and GSSG Assay Kit was used to detect intracellular GSH. SGC-7901 cells were incubated with IC50 concentrations of 3b and 3c for 24 h. Afterwards, the cells were lysed by the freeze-thaw method, and the lysate was centrifuged for 5 min to collect the supernatant. The absorbance was measured at 412 nm with a microplate reader.

In data set [14] the test system is A549. In words: MTT in vitro cytotoxicity assay, A549. Type of data set: cell-based. The settings on record: Homo sapiens, 48 h. On the procedure: as §1, §2
In data set [15] the test system is SGC-7901 cells. In words: Intracellular GSH assay. Type of data set: cell-based, human. To be noted: SGC-7901, IC50 concentrations, 24 h. As for the experimental part:
as §3

Data set [16] relates to SGC-7901 cells. In words: ATP measurement. It is filed as cell-based, human. The settings on record: SGC-7901, IC50 concentrations, 24 h. As for the experimental part: The SGC-7901 cells were cultured in six-well plates and treated with IC50 concentrations of 3b and 3c for 24 h. The cells were lysed for 10 min and centrifuged to obtain the supernatant. The prepared ATP detection working solution was added into the supernatant, 5 min late, the RLU value was measured.

Data set [17] is described as follows: pKa by potentiometric titration. It is filed as physicochemical. The settings on record: aqueous dimethyl sulfoxide (30% DMSO), 30% dimethyl sulfoxide, 0.15 M KCl. On the procedure: The pKa values of the compounds were determined by potentiometric titration using a pH meter (Basic pH Meter PB-10, Sartorius) calibrated with standard buffers of pH 4.01, 6.86 and 9.18 [26]. The compounds were dissolved in aqueous dimethyl sulfoxide (30% dimethyl sulfoxide) at constant ionic strength (0.15 M KCl). The solution was pre-acidified to approximately pH = 2 with 0.24 M HCl, and titrated until pH = 12 with 0.06 M KOH.

Data set [18] deals with SGC-7901 cells. In words: Intracellular Ca2+ levels (Fluo-3AM). It is filed as cell-based, human. The settings on record: SGC-7901, IC50 concentrations, 24 h, versus control. On the procedure:
Fluo-3AM, a Ca^2+-sensitive fluorescent probe, was used to detect the level of intracellular Ca^2+. SGC-7901 cells were incubated with IC50 concentrations of the compounds for 24 h at 37 °C. Then, the cells were washed three times with PBS, incubated with Fluo-3AM, and observed under an ImageXpress Micro XLS system (MD company, San Jose, CA, USA). The fluorescence intensity was analyzed under a high content analysis system.

Data set [19] deals with SGC-7901. In words: MTT in vitro cytotoxicity assay, SGC-7901. To be noted: Homo sapiens, 48 h. Type of data set: cell-based. As for the experimental part:
as §1, §2

The subject of data set [20] is calf thymus DNA (CT-DNA). In words: Viscosity experiments with CT-DNA. To be noted: 25 (±0.1) °C, [DNA] = 200 μM, compounds 0 to 90 μM. Type of data set: binding. As for the experimental part:
An ubberhold viscometer was used to measure the viscosity of the CT-DNA solution in the absence and presence of compounds, and the temperature was maintained at 25 ± 0.1 °C. The concentration of CT-DNA was 200 μM, and the concentrations of the compounds varied from 0 to 90 μM. The flow times were recorded with a digital stopwatch; each sample was measured three times to get the average time.

The source of these data is article PMC8949258, “Synthesis, Characterization and Anticancer Efficacy Evaluation of Benzoxanthone Compounds toward Gastric Cancer SGC-7901” (Molecules, 2022).

Molecules are shown by their SMILES. Bounds are passed on as bounds.

Take `COC(=O)c1ccc2c(ccc3oc4cccc(CCC(=O)O)c4c(=O)c32)c1` [Compound 3b, 3-(3-methoxycarbonyl-12-oxo-12H-benzo[a]xanthen-11-yl)propanoic acid]: in data set [1], the “ratio of red/green fluorescence (R), JC-1” value turned out to be 3.01. Further, the “expression of CRT, HSP70 and HMGB1” value in data set [2] is “increased”. In addition, the IC50 (usually the concentration needed to halve the response being measured) was greater than 100 µM in data set [3]; 68 ± 9.28 µM in data set [6]; 38.1 ± 0.41 µM in data set [8]; 51.5 ± 13.7 µM in data set [14]; 45.6 ± 6.5 µM in data set [19]. Besides, the logP (usually the decadic logarithm of the partition coefficient of the neutral form, usually between octanol and water) in data set [4] turned out to be 0.822. Besides, the “P38 MAPK expression” value in data set [5] is on record as “significantly upregulated”. In addition, the “increase of DCF fluorescence intensity” value in data set [7] is recorded as “about 60.5%”. Also, the “stability in PBS” value in data set [9] (UV-Vis spectra at 0 and 48 h) is given as “stable in PBS”. The “solubility in PBS” value in [9] (precipitate observed at 48 h) is listed as “low solubility in PBS”. Moreover, the “Percentage in the cell G0/G1” value in data set [10] is reported as 74.6%. In addition, the “Percentage in the cell G2/M” value in data set [10] amounted to 17.4%. The “increase in the cell at G0/G1 phase” value in data set [10] (versus control) was 17.7%. The “Stern-Volmer constant (Ksv)” value in data set [11] is on record as 2.20 (±0.12) × 10^3 M^−1. For the same compound, in [12], the cellular uptake result was “enter the cytoplasm and accumulate in the nuclei”. The compound further yielded an MDA in data set [13] of 5.58 nmol/mg. Moreover, in data set [15], the GSH concentration amounted to 69.96 µM. In data set [16], this compound showed an ATP concentration of 3.30 µM. Further, in [17], the pKa was 7.48. Besides, the “increase of Flu-3-AM fluorescence intensity (intracellular Ca2+)” value in [18] is 1.67 times. Besides, the “relative viscosity of CT-DNA with increasing compound concentration” value in data set [20] is given as “increased”.
As for `O=C(O)CCc1cccc2oc3ccc4ccccc4c3c(=O)c12` [Compound 3a, 3-(12-oxo-12H-benzo[a]xanthen-11-yl)propanoic acid], the IC50 in data set [3], in data set [6], in data set [8], in data set [14] and in [19] was greater than 100 µM each time.
